Data taken from patent US4307108A, “Method for lowering sorbitol levels using spiro-imides” (Pfizer Inc., priority 1979, dated 1981).
Where a name gives a salt, the structure may show the parent alone.

Key:
[1] = test system: sorbitol accumulation in the sciatic nerve of streptozotocinized (i.e., diabetic) rats; test: reduction/inhibition of sorbitol accumulation in the sciatic nerve of acutely streptozotocinized (diabetic) rats; type: in vivo; settings: for Percent Inhibition (%): oral, 4, 8 and 24 hours after streptozotocin, sorbitol in sciatic nerve measured 27 hours after induction of diabetes, vs. untreated animal
Method: The activity of the compounds of the present invention, as agents for the control of chronic diabetic complications, is determined by their ability to successfully pass one or more of the following standard biological and/or pharmacological tests, viz., (1) measuring their ability to reduce or inhibit sorbitol accumulation in the sciatic nerve of acutely streptozotocinized (i.e., diabetic) rats; (2) measuring their ability to reverse already-elevated sorbitol levels in the sciatic nerve and lens of chronic streptozotocin-induced diabetic rats; (3) measuring their ability to prevent or inhibit galactitol formation in the lens of acutely galactosemic rats, and (4) measuring their ability to delay cataract formation and reduce the severity of lens opacities in chronic galactosemic rats.
The following spiro-imide compounds of Preparation C and Examples 1-5, respectively, were tested for their ability to reduce or inhibit sorbitol accumulation in the sciatic nerve of streptozotocinized (i.e., diabetic) rats essentially by the procedure described in U.S. Pat. No. 3,821,383. In the present study, the amount of sorbitol accumulation in the sciatic nerves was measured 27 hours after induction of diabetes. The compounds were administered orally at the dose levels indicated 4, 8 and 24 hours following the administration of streptozotocin. The results obtained in this manner are presented below in terms of percent inhibition (%) afforded by the test compound as compared to the case where no compound was administered (i.e., the untreated animal where sorbitol levels normally rise from approximately […]. tissue to as high as […]. tissue in the 27-hour test period): […]

[2] = toxic side effects in diabetic rats on oral administration; type: in vivo; settings: dose level as low as 2.5 mg./kg.
From the text: As previously indicated, the spiro-imide compounds of this invention reduce lens sorbitol levels in diabetic subjects. […] The other compounds of this invention also cause similar results. Furthermore, the herein described compounds can be administered by either the oral or parenteral routes of administration without causing any significant untoward pharmacological side reactions in the subjects to whom they are so administered. These compounds are ordinarily administered in dosages ranging from about 0.25 mg. to about 25 mg. per kg. of body weight per day, although variations will necessarily occur depending upon the actual condition of the subject being treated and the particular route of administration chosen.

water solubility of salt = type: physicochemical; settings: sodium salt, amorphous powder, freeze-dried

**Q.** For O=C1CC2(CCc3ccccc32)C(=O)N1 (stereo not drawn) [Product of Ex. 1, 2,3-dihydro-spiro-[1H-indene-1,3'-pyrrolidine]-2',5'-dione], which “Percent Inhibition (%)” value ([1]; 2.5 mg./kg.) is on record?
**A.** 28%

**Q.** And the “inhibit the formation of sorbitol levels in the sciatic nerve of diabetic rats” value ([1]; oral, dose level as low as 2.5 mg./kg., result in words)?
**A.** to a significant degree

**Q.** And the “substantial signs of toxic side effects” value [2]?
**A.** without showing any substantial signs of toxic side effects

**Q.** With O=C1CC2(CCOc3ccc(Cl)cc32)C(=O)N1 (stereo not drawn) [Product of Ex. 2, 6-chloro-2,3-dihydro-spiro-[4H-1-benzopyran-4,3'-pyrrolidine]-2',5'-dione] as the compound, how does the “Percent Inhibition (%)” value ([1]; 5.0 mg./kg.) read?
**A.** 13%

**Q.** For O=C1CC2(Cc3ccccc3C2)C(=O)N1 [Product of Ex. 3, 2,3-dihydro-spiro-[1H-indene-2,3'-pyrrolidine]-2',5'-dione], which “Percent Inhibition (%)” value ([1]; 25 mg./kg.) is on record?
**A.** 33%

**Q.** Which “Percent Inhibition (%)” value ([1]; 25 mg./kg.) does the source give for O=C1CC2(CCCc3sccc32)C(=O)N1 (stereo not drawn) [Product of Ex. 4, 6,7-dihydro-spiro-[5H-benzo(b)thiophene-4,3'-pyrrolidine]-2',5'-dione] here?
**A.** 51%

**Q.** With O=C1CCC2(CCCc3ccccc32)C(=O)N1 (stereo not drawn) [Product of Ex. 5, 3,4-dihydro-spiro-[2H-naphthalene-1,3'-piperidine]-2',6'-dione] as the compound, how does the “Percent Inhibition (%)” value ([1]; 25 mg./kg.) read?
**A.** 23%

**Q.** Which “Percent Inhibition (%)” value ([1]; 5.0 mg./kg.) does the source give for O=C1CC2(CCCc3ccccc32)C(=O)N1 (stereo not drawn) [Product of Prep. C, 3,4-dihydro-spiro-[2H-naphthalene-1,3'-pyrrolidine]-2',5'-dione] here?
**A.** 46%

**Q.** Which solubility in water (water solubility of salt) does the source give for O=C1CC2(CCc3ccccc32)C(=O)N1 (stereo not drawn) [sodium salt of 3,4-dihydro-spiro-[1H-indene-1,3'-pyrrolidino]-2',5'-dione] here?
**A.** freely-soluble in water
